In general, IC50 refers to the midpoint of a concentration-inhibition curve.

For five molecules, IC50 and EC50 results are on record in patent US6087334A, “Anti-diabetic peptides” (Amylin Pharmaceuticals, Inc., priority 1998, dated 2000).

The target of experiment [1] is T1, C1a receptor (C1a-type calcitonin receptor) (Rattus norvegicus, UniProt P32214).
T1 construct: expressed in transfected cells
T1 sequence (P32214 25-479 isoform P32214-2 limits assumed): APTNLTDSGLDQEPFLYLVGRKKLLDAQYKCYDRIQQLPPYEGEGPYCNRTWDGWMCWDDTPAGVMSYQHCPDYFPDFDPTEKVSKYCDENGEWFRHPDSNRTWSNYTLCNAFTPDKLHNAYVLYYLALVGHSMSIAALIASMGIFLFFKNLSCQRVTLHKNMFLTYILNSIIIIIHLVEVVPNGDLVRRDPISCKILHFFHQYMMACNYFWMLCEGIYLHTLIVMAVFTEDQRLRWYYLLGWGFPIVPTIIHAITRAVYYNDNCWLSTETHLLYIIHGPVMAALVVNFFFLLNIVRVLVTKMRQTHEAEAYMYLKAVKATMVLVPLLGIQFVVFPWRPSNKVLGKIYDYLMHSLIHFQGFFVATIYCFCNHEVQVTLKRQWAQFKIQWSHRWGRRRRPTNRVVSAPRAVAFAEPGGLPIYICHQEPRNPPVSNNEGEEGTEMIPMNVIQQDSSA
Nature of the experiment: C1a/293 competitive binding, displacement of [125I]-human calcitonin (Example C). To be noted: HEK293 plasma membranes (C1a/293), [125I]-human calcitonin 20 pM. As to the method: Peptide compounds of the present invention may be evaluated for binding to the C1a receptor using the procedures described in Example C. The C1a receptor is the predominant mammalian calcitonin receptor subtype. C1a pcDNA construction and transfection were carried out as previously described (Albrandt et al. 1993, FEBS Letters, 325:225-232). HEK293 cell lines showing stable expression of the rat C1a-type calcitonin receptor (C1a/293) or the human C1a-type calcitonin receptor (1154/293) were selected by G418 resistance and limiting dilution culture methods. Plasma membranes were collected from homogenized HEK293 cells and used in the receptor binding assay. Individual test peptides at concentrations spanning 6 log units starting at around 10^-6 M were examined for their ability to displace [^125 I]-human calcitonin from the plasma membrane preparation using a 96-well microtiter plate format and scintillation counting with a Wallac LKB Beta plate counter. Competitive binding curves were constructed. Non-specific binding was measured in the presence of 100 nM calcitonin. Peptide potencies (IC50 's for competitive binding) were calculated by non-linear regression using Prism™ (version 2.01, GraphPAD Software, San Diego, Calif.).
C1a/293 Competitive Binding Studies:
Compounds were evaluated for competition in binding to the C1a receptor as follows:
(§1) Reference peptides used in these studies were purchased from Bachem (Torrance, Calif.). All other chemicals were of the highest commercial grade. [^35 S]-GTPγS was purchased from NEN Life Science Products, Inc., Pittsburgh, Pa. [^125 I]-human calcitonin was purchased from Amersham Pharmacia Biotech, Inc., Piscataway, N.J.
Methods for C1a pcDNA construction and transfection have been previously described (Albrandt, et al. 1993). HEK293 cell lines stably expressing the rat C1a-type calcitonin receptor (C1a/293) or the human C1a-type calcitonin receptor (1154/293) were selected by G418 resistance and limiting dilution culture methods.
(§2) Confluent cells were detached from tissue culture flasks by incubation with 5 mM EDTA in PBS. Cells were homogenized in ice-cold 20 mM HEPES, pH 7.4 with a Polytron homogenizer. Plasma membranes were collected using three cycles of washing in fresh buffer followed by centrifugation for 15 minutes at 48,000×g. The final membrane pellet was resuspended in 20 mM HEPES buffer containing 0.2 mM phenylmethylsulfonyl fluoride (PMSF) and stored at -70° C.
Assay buffer contained 5 μg/mL bestatin, 1 μg/mL phosphoramidon, 1 mg/mL bovine serum albumin (fraction V), 1 mg/mL bacitracin, 1 mM MgCl2, and 20 mM HEPES, pH 7.4. Membranes (2-5 μg membrane protein/well), [^125 I]-human calcitonin (20 pM), and peptides were combined in 200 μL buffer in 96-well microtiter plates. After a 60 minute incubation at room temperature, well contents were harvested onto polyethyleneimine-treated GF/B glass fiber pads using a Tomtec Mach II plate harvestor (Hamden, Conn.). Dried pads were combined with scintillant and counted on a Wallac LKB Beta Plate scintillation counter (Gaithersburg, Md.). For competitive binding curves, samples were run in duplicate over a 6 log concentration range starting at 10^-6 or 10^-7 M. Non-specific binding was measured in the presence of 100 nM human calcitonin.
In general terms: Displacement assays read how much labelled ligand stays bound in the presence of the test substance.

Experiment [2] has as its target T1, C1a receptor (C1a-type calcitonin receptor). Nature of the experiment: biochemical. The conditions noted are these: HEK293 plasma membranes, [35S]-GTPγS 200 pM; read-out: ED50 (nM) Example B (C1a GTPγS).
Text: Peptide compounds of the present invention may be evaluated for agonist activity using the procedures described in Example B. The plasma membrane preparation of a 7-transmembrane-G-protein coupled receptor (GPCR) contains not only the receptor but also the G-proteins which constitute the first step in the intracellular signal transduction process when the receptor is activated by an agonist ligand. […] Agonist activation of a GPCR is accompanied by displacement of GDP by GTP from this site. Thus, measurement of the binding of a radiolabelled ligand, namely [^35 S]-GTPγS, for this binding site constitutes a measure of agonist potency for a given ligand. For agonism at the C1a receptor, a similar membrane preparation to that described below for the C1a binding studies is used. C1a pcDNA construction and transfection were carried out as previously described (Albrandt et al. 1993, FEBS Letters, 325:225-232). HEK293 cell lines showing stable expression of the rat C1a-type calcitonin receptor (C1a/293) or the human C1a-type calcitonin receptor (1154/293) were selected by G418 resistance and limiting dilution culture methods. Plasma membranes were collected from homogenized HEK293 cells and used in the [^35 S]-GTPγS assay. Individual test peptides at concentrations spanning 6 log units starting at around […] were examined for their ability to bind [^35 S]-GTPγS. Maximum agonist-specific binding was measured in the presence of 1 μM human calcitonin, constitutive binding was measured in the presence of buffer alone. Peptide potencies (EC50 's for concentration response curves) were calculated by non-linear regression using Prism™ (version 2.01, GraphPAD Software, San Diego, Calif.).
[^35 S]-GTPγS C1a Agonist Studies
Evaluation of the agonist activity of compounds versus the C1a receptor was carried out as follows:
as §1
Methods for C1a pcDNA construction and transfection have been previously described (Albrandt, et al. 1993, FEBS Letters, 325:225-232). HEK293 cell lines stably expressing the rat C1a-type calcitonin receptor (C1a/293) or the human C1a-type calcitonin receptor (1154/293) were selected by G418 resistance and limiting dilution culture methods.
as §2
Assay buffer contained 1 μM GDP, 1 mM EDTA, 5 mM MgCl2, 20 mM Hepes, and 150 mM NaCl, pH 7.4. Membranes (7.5 μg membrane protein/well), [^35 S]-GTPγS (200 pM), and peptides were combined in 200 μL buffer in 96-well microtiter plates. After a 75 minute incubation at room temperature, well contents were harvested onto GF/B glass fiber pads using a Tomtec Mach II plate harvestor (Hamden, Conn.). Dried pads were combined with scintillant and counted on a Wallac LKB Beta Plate scintillation counter. For concentration response curves, samples were run in duplicate over a 6 log concentration range starting at 10^-6 M or 10^-7 M. Maximum agonist-specific binding was measured in the presence of 1 μM human calcitonin, constitutive binding was measured in the presence of buffer alone.
Peptide potencies (1C50 's for competitive binding, and EC50 's for concentration response curves) were calculated by non-linear regression using Prism (version 2.01, GraphPAD Software, San Diego, Calif.).
Background: GTPγS resists hydrolysis and so accumulates on activated G proteins.

Where a SMILES comes first, the peptide text is derived from it. Bridges are numbered along the chain shown (N, C = ends). The star is where a group is joined. Pentanoyl(4-Me) = CC(C)CCC(=O)*

`CC(C)C[C@H](NC(=O)[C@H](CCCNC(=N)N)NC(=O)[C@H](CCC(N)=O)NC(=O)[C@@H](NC(=O)[C@H](C)NC(=O)[C@@H]1CSSC[C@H](NC(=O)[C@@H](N)CCCCN)C(=O)N[C@@H](CC(N)=O)C(=O)N[C@@H](C(C)C)C(=O)N[C@@H](C)C(=O)N[C@@H]([C@@H](C)O)C(=O)N1)[C@@H](C)O)C(=O)N[C@@H](C)C(=O)N[C@@H](CC(N)=O)C(=O)N[C@@H](Cc1ccccc1)C(=O)N[C@@H](CC(C)C)C(=O)N[C@H](C(=O)N[C@@H](CCCNC(=N)N)C(=O)N[C@@H](CO)C(=O)N[C@@H](CO)C(=O)NCC(=O)N[C@@H](Cc1ccc(O)cc1)C(N)=O)C(C)C` [Example 2] (H-KCNVATCATQRLANFLVRSSGY-NH2; disulfide 2-7): in experiment [1], the half-inhibitory concentration (IC50) was determined as 0.128 nM. In experiment [2], the EC50 is 2.6 nM.
Turning to `CC(C)CCC(=O)N[C@@H](CC(C)C)C(=O)N[C@@H](CO)C(=O)N[C@H](C(=O)N[C@@H](C)C(=O)N[C@@H](C)C(=O)N[C@H](C(=O)N[C@@H](C)C(=O)N[C@@H](CCCNC(=N)N)C(=O)N[C@@H](CC(C)C)C(=O)N[C@@H](C)C(=O)N[C@@H](C)C(=O)N[C@@H](Cc1ccccc1)C(=O)N[C@@H](CC(C)C)C(=O)N[C@@H](C)C(=O)N[C@@H](CCCNC(=N)N)C(=O)N[C@@H](CO)C(N)=O)[C@@H](C)O)[C@@H](C)O` [Example 4] ({Pentanoyl(4-Me)}-LSTAATARLAAFLARS-NH2), in experiment [1], the IC50 was 0.66 nM. Further, the EC50 in experiment [2] was 0.73 nM.
Consider `CC(C)C[C@H](NC(=O)[C@H](CCCNC(=N)N)NC(=O)[C@H](C)NC(=O)[C@@H](NC(=O)[C@H](C)NC(=O)[C@@H]1CSSC[C@H](N)C(=O)N[C@@H](CC(N)=O)C(=O)N[C@@H]([C@@H](C)O)C(=O)N[C@@H](C)C(=O)N[C@@H]([C@@H](C)O)C(=O)N1)[C@@H](C)O)C(=O)N[C@@H](C)C(=O)N[C@@H](C)C(=O)N[C@@H](Cc1ccccc1)C(=O)N[C@@H](CC(C)C)C(=O)N[C@@H](C)C(=O)N[C@@H](CCCNC(=N)N)C(N)=O` [Example 7] (H-CNTATCATARLAAFLAR-NH2; disulfide 1-6), for which the IC50 in experiment [1] turned out to be 2.7 nM. Also, the EC50 in experiment [2] was 2.2 nM.
Turning to `CC(C)C[C@H](NC(=O)[C@H](CCCNC(=N)N)NC(=O)[C@H](CCC(N)=O)NC(=O)[C@@H](NC(=O)[C@H](C)NC(=O)[C@@H]1CSSC[C@H](NC(=O)[C@@H](N)CCCCN)C(=O)N[C@@H](CC(N)=O)C(=O)N[C@@H]([C@@H](C)O)C(=O)N[C@@H](C)C(=O)N[C@@H]([C@@H](C)O)C(=O)N1)[C@@H](C)O)C(=O)N[C@@H](C)C(=O)N[C@@H](C)C(=O)N[C@@H](Cc1ccccc1)C(=O)N[C@@H](CC(C)C)C(=O)N[C@H](C(=O)N[C@@H](CCCNC(=N)N)C(=O)N[C@@H](CO)C(=O)N[C@@H](CO)C(=O)NCC(=O)N[C@@H](Cc1ccc(O)cc1)C(N)=O)C(C)C` [Example 8] (H-KCNTATCATQRLAAFLVRSSGY-NH2; disulfide 2-7), the half-inhibitory concentration (IC50) in experiment [1] turned out to be 3.4 nM. For the same molecule, the EC50 in experiment [2] stood at 4.4 nM.
Turning to `CC(C)C[C@H](NC(=O)[C@H](CCCNC(=N)N)NC(=O)[C@H](CCC(N)=O)NC(=O)[C@@H](NC(=O)[C@H](C)NC(=O)[C@@H]1CSSC[C@H](NC(=O)[C@@H](N)CCCCN)C(=O)N[C@@H](CC(N)=O)C(=O)N[C@@H]([C@@H](C)O)C(=O)N[C@@H](C)C(=O)N[C@@H]([C@@H](C)O)C(=O)N1)[C@@H](C)O)C(=O)N[C@@H](C)C(=O)N[C@@H](CC(N)=O)C(=O)N[C@@H](Cc1ccccc1)C(=O)N[C@@H](CC(C)C)C(=O)N[C@H](C(=O)N[C@@H](CCCNC(=N)N)C(=O)N[C@@H](CO)C(=O)NCC(=O)N[C@@H](Cc1ccc(O)cc1)C(N)=O)C(C)C` [Example 9] (H-KCNTATCATQRLANFLVRSGY-NH2; disulfide 2-7), the IC50 in experiment [1] was 4.1 nM. In addition, the EC50 in experiment [2] turned out to be 8.6 nM.
